According to publication PMC6395926, “Mass Balance and Drug Interaction Potential of Intravenous Eravacycline Administered to Healthy Subjects” (Antimicrobial Agents and Chemotherapy, 2019):
“Also recorded” adds a separate entry of the source. Like-named read-outs stand apart in the source and are kept apart here.

What was measured:
[1] = Mass balance study: plasma PK of eravacycline, TP-498 and TP-6208 (LC-MS); assay type: in vivo, human; conditions: in vivo, iv
Source text: (ii) Study design. This was a single-center, open-label study of a single i.v. dose of [^14C]eravacycline to assess the mass balance recovery and PK of eravacycline. The primary objectives were to determine mass balance recovery, determine routes and rates of excretion, provide metabolite profiling and structural identification, and assess the PK of radioactivity in plasma and whole blood. Subjects were screened for inclusion in the study, including a detailed medical history, physical examination, and laboratory evaluations, in the 28 days before dosing. Eligible subjects were admitted to the clinical study unit at approximately 21:00 on the evening prior to study drug administration (day −1) and remained on site until 240 h postdose for collection of urine, feces, and blood samples. After an overnight fast, each subject received 60 mg [^14C]eravacycline containing not more than 3.8 MBq (105 μCi) ^14C as a single i.v. infusion over 60 min.
(vi) Study assessments. PK parameters were determined for total radioactivity in plasma and whole blood. Eravacycline, TP-498, and TP-6208 concentrations in plasma were quantified using a validated assay with internal standards. The following PK parameters were determined: Cmax, Tmax, time from dosing before the first quantifiable concentration in a concentration versus time profile (Tlag), AUC0–t, AUC0–24, AUC0–∞, the percentage of AUC0–∞ extrapolated beyond the time of the last measurable concentration (AUC%extrap), the slope of the apparent terminal phase (lambda-z), the apparent terminal half-life (t1/2), the mean residence time estimated between time zero and infinity (MRT0-∞), the apparent volume of plasma cleared of analyte per unit time (CL), and the volume of distribution of analyte at steady state (Vss).
Plasma concentrations of eravacycline, TP-498, and TP-6208 were measured by liquid chromatography with tandem mass spectrometry (LC-MS). The LLOQ was 5 ng/ml for eravacycline, TP-498, and TP-6208. The calibration ranges for eravacycline, TP-498, and TP-6208 in human urine were 50 to 10,000 ng/ml, 50 to 1,000 ng/ml, and 20 to 1,000 ng/ml, respectively. The calibration ranges for eravacycline, TP-498, and TP-6208 in human plasma were 5 to 500 ng/ml.
(viii) Study analysis. Descriptive statistics (mean, median, standard deviation [SD], percent coefficient of variation [%CV], minimum, maximum, number, geometric mean, and geometric %CV) were calculated for all concentration data. Pharmacokinetic parameters were calculated using Phoenix WinNonlin v6.3 (Certera USA, Inc.).

[2] = Drug interaction study with rifampin (CYP3A4 inducer): plasma PK of i.v. eravacycline and metabolites; assay type: in vivo, human; conditions: in vivo
Procedure: Two single-center, open-label studies were conducted to evaluate the effects of itraconazole (CYP3A4 inhibitor) and rifampin (CYP3A4 inducer) on the pharmacokinetics of i.v. eravacycline in healthy subjects.
(ii) Study design. Each study included a 28-day screening period, a 13-day treatment period (19 days for rifampin), and an end-of-study visit 2 weeks after the last dose of study drug. […] For the itraconazole study, 200 mg oral itraconazole was administered q12h on day 8 and q24h on days 9 and 10. For the rifampin study, 600 mg oral rifampin was administered q24h from day 8 to day 17. All study treatments were administered in the fasting state.
(§1) (iii) Study assessments. Blood samples for PK analysis of eravacycline and its metabolites, TP-498, TP-6208, and TP-034, were collected predose and 1, 2, 4, 6, 8, 12, 24, 36, and 48 h after the start of the i.v. infusion on day 1 and day 10 (itraconazole) or day 1 and day 17 (rifampin). Safety assessments included AEs, clinical laboratory safety tests (hematology, serum chemistry, electrolytes, coagulation, urinalysis, and lipid profile), vital signs, physical examinations, and 12-lead ECG.
Concentrations of eravacycline, TP-498, and TP-6208 in human plasma samples were measured by LC-tandem MS after solid-phase extraction over a calibration range of 5.00 to 500 ng/ml. The LLOQ for eravacycline, TP-498, TP-6208, and TP-034 in human plasma was 5.00 ng/ml. Samples with eravacycline initial concentrations above the upper limit of quantification (500 ng/ml) were diluted appropriately with control blank human plasma and reanalyzed. There was no interference seen when human plasma was fortified with eravacycline, TP-498, TP-6208, and either itraconazole or rifampin.
(iv) Pharmacokinetic analysis. PK assessments included Cmax, Tmax, AUC0–24, AUC0–t, t1/2, CL, and Vss. Actual sampling time was used for PK calculations. PK parameters were derived by noncompartmental analysis. Descriptive statistics were calculated for analyte concentrations at each evaluation time point and for all quantitative PK parameters of eravacycline, TP-498, TP-6208, and TP-034 for day 1 and day 10 (day 17 for rifampin). The effect of itraconazole or rifampin on the PK profile of i.v. eravacycline was evaluated by comparing log-transformed PK parameters (Cmax and AUC0–t) associated with the administration of study drug on day 1 and day 10 (itraconazole) or day 1 and day 17 (rifampin) using paired t tests. The ratio and 90% confidence interval (CI) were presented after back transformation to the original scale. Pharmacokinetic variables were calculated using WinNonlin Professional.

[3] = in vitro; previous studies, no reference given; cited from earlier work
[4] = Itraconazole drug interaction study: safety/tolerability; assay type: in vivo, human; conditions: itraconazole treatment period, 3 of 11 subjects
Procedure: as §1

[5] = parameters: species or system human; conditions: human, in vivo
Procedure: as §1

Row | SMILES | CLR ([1]; human) | Cmax ([1]; human) | geometric mean AUC0–t, fold lower than that of eravacycline ([1]; human) | geometric mean Cmax, fold lower than that of eravacycline ([1]; human) | time postdose plasma concentrations were quantifiable [1] | Mean Cmax and AUC0–24 when eravacycline was dosed with or without rifampin [2] | antimicrobial activity [3] | AUC0–∞ ([1]; human) | geometric mean AUC0–∞, fold lower than that of eravacycline ([1]; human) | t1/2 ([1]; human) | subjects who experienced an AE [4] | subjects who experienced an AE [5]
1 | CN(C)[C@H]1C(O)=C(C(N)=O)C(=O)[C@@]2(O)C(O)=C3C(=O)c4c(O)c(NC(=O)CN5CCCC5)cc(F)c4C[C@H]3C[C@@H]12 [TP-498] | 85.7 ± 35.5 mL/min | 0.0204 ± 0.0189 µg/mL | 13.5 fold | 53.9 fold | 37 to 49 h | similar | no in vitro antimicrobial activity; also recorded: None exhibit antimicrobial activity |  |  |  |  | 
2 | CN(C)[C@@H]1C(=O)C(C(N)=O)=C(O)[C@@]2(O)C(=O)C3=C(O)c4c(O)c(N5C(=O)CN6CCCC65)cc(F)c4C[C@H]3C[C@@H]12 (some centres unmarked) [TP-6208] |  | 0.0428 ± 0.0289 µg/mL | 2.9 fold | 25.7 fold | 49 to 73 h |  | no in vitro antimicrobial activity; also recorded: None exhibit antimicrobial activity | 1780 ± 26.9 (n = 2) h·ng/ml | 2.5 fold | 18.8 ± 17.8 (n = 2) h |  | 
3 | CCC(C)n1ncn(-c2ccc(N3CCN(c4ccc(OCC5COC(Cn6cncn6)(c6ccc(Cl)cc6Cl)O5)cc4)CC3)cc2)c1=O (centres unmarked) [itraconazole, reference compound] |  |  |  |  |  |  |  |  |  |  | 27.3% | 
4 | CO[C@H]1/C=C/O[C@@]2(C)Oc3c(C)c(O)c4c(O)c(c(/C=N/N5CCN(C)CC5)c(O)c4c3C2=O)NC(=O)/C(C)=C\C=C\[C@H](C)[C@H](O)[C@@H](C)[C@@H](O)[C@@H](C)[C@H](OC(C)=O)[C@@H]1C [rifampin, reference compound] |  |  |  |  |  |  |  |  |  |  |  | 8.3%
